From patent publication US20230085307A1, “PYRIDAZINONE COMPOUND AND HERBICIDE” (NISSAN CHEMICAL CORPORATION, priority 2019, published 2023)

Legend:
Conditions in all cases: amount of applied herbicide 320 g/ha
southern crabgrass = assay: Test Example 4: herbicidal effect by soil treatment (Table 19, symbol F); type: in vivo, southern crabgrass (Digitaria ciliaris)
Outline: (§1)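 Emulsion of test compound, water-diluted to predetermined amount, sprayed on soil after sowing (seed depth ~1.5 cm, sterilized diluvial soil). Greenhouse, 25–30° C. Effect graded at three weeks post-spray.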

Chinese sprangletop = assay: Test Example 3: herbicidal effect by foliage application, Wagner pot (Table 18, symbol D); type: in vivo, chinese sprangletop (Leptochloa chinensis)
Outline: (§2)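 Plants were sown in alluvial soil held under 0.1–0.5 cm standing water and grown 14 days in a greenhouse at 25–30 °C. An emulsifiable formulation, water-diluted to the set dose, was then sprayed onto the foliage, and effects were scored three weeks later using previously defined criteria.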

persian speedwell = assay: Test Example 4: herbicidal effect by soil treatment (Table 19, symbol R); type: in vivo, Persian speedwell (Veronica persica)
Outline: as §1

green foxtail = assay: Test Example 4: herbicidal effect by soil treatment (Table 19, symbol G); type: in vivo, green foxtail (Setaria viridis)
Outline: as §1

Italian ryegrass = assay: Test Example 4: herbicidal effect by soil treatment (Table 19, symbol K); type: in vivo, Italian ryegrass (Lolium multiflorum)
Outline: as §1

blackgrass = assay: Test Example 4: herbicidal effect by soil treatment (Table 19, symbol J); type: in vivo, blackgrass (Alopecurus myosuroides)
Outline: as §1

chickweed = assay: Test Example 4: herbicidal effect by soil treatment (Table 19, symbol P); type: in vivo, common chickweed (Stellaria media)
Outline: as §1

barnyard grass [1] = assay: Test Example 4: herbicidal effect by soil treatment (Table 19, symbol H); type: in vivo, barnyard grass (Echinochloa crus-galli)
Outline: as §1

wild oat = assay: Test Example 4: herbicidal effect by soil treatment (Table 19, symbol I); type: in vivo, wild oat (Avena fatua)
Outline: as §1

rice flat sedge = assay: Test Example 3: herbicidal effect by foliage application, Wagner pot (Table 18, symbol E); type: in vivo, rice flat sedge (Cyperus iria)
Outline: as §2

barnyard grass [2] = assay: Test Example 3: herbicidal effect by foliage application, Wagner pot (Table 18, symbol H); type: in vivo, barnyard grass (Echinochloa crus-galli)
Outline: as §2

lambsquarters = assay: Test Example 4: herbicidal effect by soil treatment (Table 19, symbol O); type: in vivo, lambsquarters (Chenopodium album)
Outline: as §1

windgrass = assay: Test Example 4: herbicidal effect by soil treatment (Table 19, symbol L); type: in vivo, windgrass (Apera spica-venti)
Outline: as §1

velvetleaf = assay: Test Example 4: herbicidal effect by soil treatment (Table 19, symbol M); type: in vivo, velvetleaf (Abutilon theophrasti)
Outline: as §1

redroot pigweed = assay: Test Example 4: herbicidal effect by soil treatment (Table 19, symbol N); type: in vivo, redroot pigweed (Amaranthus retroflexus)
Outline: as §1

Structure (SMILES): COc1ccc(F)c(-c2sc3ccc(F)cc3c2-c2c(O)c(C)nn(C)c2=O)c1 [2-366]
- herbicidal effect, F: southern crabgrass (southern crabgrass): 3 (Herbicidal rate of 40% or more and less than 70%)
- herbicidal effect on D: Chinese sprangletop (Chinese sprangletop): 0 (Herbicidal rate of 5% or less (almost no effect))
- herbicidal effect, R: persian speedwell (persian speedwell): 3 (Herbicidal rate of 40% or more and less than 70%)
- herbicidal effect, G: green foxtail (green foxtail): 0 (Herbicidal rate of 5% or less (almost no effect))
- herbicidal effect, K: Italian ryegrass (Italian ryegrass): 4 (Herbicidal rate of 70% or more and less than 90%)
- herbicidal effect, J: blackgrass (blackgrass): 2 (Herbicidal rate of 20% or more and less than 40%)
- herbicidal effect, P: chickweed (chickweed): 3 (Herbicidal rate of 40% or more and less than 70%)
- herbicidal effect, H: barnyard grass (barnyard grass [1]): 0 (Herbicidal rate of 5% or less (almost no effect))
- herbicidal effect, I: wild oat (wild oat): 0 (Herbicidal rate of 5% or less (almost no effect))
- herbicidal effect on E: rice flat sedge (rice flat sedge): 3 (Herbicidal rate of 40% or more and less than 70%)
- herbicidal effect on H: barnyard grass (barnyard grass [2]): 3 (Herbicidal rate of 40% or more and less than 70%)
- herbicidal effect, O: lambsquarters (lambsquarters): 2 (Herbicidal rate of 20% or more and less than 40%)
- herbicidal effect, L: windgrass (windgrass): 0 (Herbicidal rate of 5% or less (almost no effect))
- herbicidal effect, M: velvetleaf (velvetleaf): 0 (Herbicidal rate of 5% or less (almost no effect))
- herbicidal effect, N: redroot pigweed (redroot pigweed): 4 (Herbicidal rate of 70% or more and less than 90%)

Structure (SMILES): Cc1nn(C)c(=O)c(-c2c(-c3cnccc3F)sc3ccc(F)cc23)c1O [2-383]
- herbicidal effect, F: southern crabgrass (southern crabgrass): 4 (Herbicidal rate of 70% or more and less than 90%)
- herbicidal effect on D: Chinese sprangletop (Chinese sprangletop): 5 (Herbicidal rate of 90% or more (almost completely withered))
- herbicidal effect, R: persian speedwell (persian speedwell): 5 (Herbicidal rate of 90% or more (almost completely withered))
- herbicidal effect, G: green foxtail (green foxtail): 4 (Herbicidal rate of 70% or more and less than 90%)
- herbicidal effect, K: Italian ryegrass (Italian ryegrass): 4 (Herbicidal rate of 70% or more and less than 90%)
- herbicidal effect, J: blackgrass (blackgrass): 4 (Herbicidal rate of 70% or more and less than 90%)
- herbicidal effect, P: chickweed (chickweed): 4 (Herbicidal rate of 70% or more and less than 90%)
- herbicidal effect, H: barnyard grass (barnyard grass [1]): 3 (Herbicidal rate of 40% or more and less than 70%)
- herbicidal effect, I: wild oat (wild oat): 3 (Herbicidal rate of 40% or more and less than 70%)
- herbicidal effect on E: rice flat sedge (rice flat sedge): 5 (Herbicidal rate of 90% or more (almost completely withered))
- herbicidal effect on H: barnyard grass (barnyard grass [2]): 5 (Herbicidal rate of 90% or more (almost completely withered))
- herbicidal effect, O: lambsquarters (lambsquarters): 4 (Herbicidal rate of 70% or more and less than 90%)
- herbicidal effect, L: windgrass (windgrass): 3 (Herbicidal rate of 40% or more and less than 70%)
- herbicidal effect, M: velvetleaf (velvetleaf): 4 (Herbicidal rate of 70% or more and less than 90%)
- herbicidal effect, N: redroot pigweed (redroot pigweed): 5 (Herbicidal rate of 90% or more (almost completely withered))
